Test results: US20200369674A1, “ANTI-PAIN COMPOUND AND PREPARATION METHOD THEREOF” (LUNAN PHARMACEUTICAL GROUP CORPORATION, priority 2017, published 2020)

Experiments:
ICR mice [1] = assay: Hot plate test; assay type: in vivo; conditions: Mus musculus, po; 3 mg/kg intragastric, latency 2.0 hours after administration, hot plate 55° C.; read-out: PTE %
Procedure: (§1) ICR mice, 18-22 g, half of them being male and the other half being female, provided by the Department of Laboratory Animals, Peking University (License No.: SCXK (Beijing) 2016-0010).
The temperature of hot plate was adjusted to 55° C., and the responses of mouse such as licking hind feet and jumping were used as the observation indexes. The time from the placement of mice on copper plate to the appearance of the above responses was defined as latency time. The latency time was measured for three times 30 minutes before administration, and the average value thereof was used as basic threshold, or baseline latency (BL). The animals with a latency time greater than 15 s and less than 5 s were removed, and the residual mice were randomly grouped, 8 animals per group.
Vehicle control group (double-distilled water) and groups for samples to be tested (the compounds and doses thereof were shown in Table 1) were set. All drugs were dissolved in […] before administration, and given by intragastric administration. The latency time was measured 2.0 hours after administration. Percentage of Pain Threshold Elevated Rate (PTE %) of compound on mice was calculated according to the following formula:
PTE %=(latency time of test group−latency time of vehicle control group)/latency time of vehicle control group×100

ICR mice [2] = assay: Formalin experiment; assay type: in vivo; conditions: Mus musculus, po, 2 h, 2.5% formalin two hours after administration, phase II 10-60 minutes, read-out: Phase II pain inhibition rate (%); for inhibition in vivo at 9 mg/kg: 9 mg/kg intragastric
Procedure: as §1
ICR mice, half of them being male and the other half being female, were randomly grouped, 8 mice per group. Vehicle control group (double-distilled water) and groups for samples to be tested were set, in which the compounds and doses thereof were shown in Table 3. All drugs were dissolved in double-distilled water before administration, and given by intragastric administration at predetermined doses. Two hours after administration, the mice were injected with 20 ul of 2.5% formalin solution in the right hind foot, and the time (s) of licking or biting foot was recorded as an index of pain response, in which 0-5 minutes was phase I, 10-60 minutes was phase II, and the total observation time was 60 minutes. The phase II pain inhibition rate of compound in mice was calculated according to the following formula:
Inhibition rate %=(time of licking or biting foot in vehicle control group−time of licking or biting foot in test group)/time of licking or biting foot in vehicle control group×100

ICR mice [3] = assay: Xylene-induced mouse ear swelling test (Effect Example 4); assay type: in vivo; parameters: key to Inhibition rate (%): Symbol “—” indicates that the data obtained at this dose was not significantly different from the vehicle control group; conditions: 50 uL xylene two hours after administration; for inhibition in vivo at 3 mg/kg: Mus musculus, po, 2 h, 3 mg/kg intragastric, read-out: Inhibition rate (%)
Procedure: as §1
ICR mice were randomly grouped, 8 mice per group, half of them being male and the other half being female. Vehicle control group (double-distilled water) and groups for samples to be tested (the compounds and doses thereof were shown in Table 4). All drugs were dissolved in double-distilled water immediately before administration, and given by intragastric administration at predetermined doses. Two hours after administration, 50 uL of xylene was smeared evenly on the inner and outer sides of right ear of mouse. After 30 minutes, the left and right ears of mouse were cut, and circular ear pieces of the same size were punched at the same position on the left and right ears, and weighed. The ear swelling inhibition rate of compound in mice was calculated according to the formula.
Inhibition rate %=(degree of ear swelling in vehicle control group−degree of ear swelling in test group)/degree of ear swelling in vehicle control group×100

ICR mice [4] = assay: Acetic acid writhing test; assay type: in vivo; conditions: Mus musculus, po, 2 h, 0.6% acetic acid ip two hours after administration, read-out: Inhibition rate (%); for inhibition in vivo at 3 mg/kg: 3 mg/kg intragastric
Procedure: as §1
ICR mice, half of them being male and the other half being female, were randomly grouped, 8 mice per group. Vehicle control group (double-distilled water), ibuprofen control group, and groups for samples to be tested (the compounds and doses thereof were shown in Table 2) were set. All drugs were dissolved in double-distilled water before administration, and given by intragastric administration at predetermined doses. Two hours after the administration, the mice were intraperitoneally injected with 0.6% acetic acid solution (10 ml/kg, ip), and the number of times the mice writhed (abdomen depressed, buttock raised, body elongated) was recorded within 5-20 minutes. The inhibition rate % of compound on writhing pain in mice was calculated according to the following formula.
Inhibition rate %=(number of writhing times in vehicle control group−number of writhing times in test group)/number of writhing times in vehicle control group×100

CCI rats [5] = assay: Mechanical stimulation paw withdrawal threshold (MWT) in CCI rats; assay type: in vivo, SD rats; conditions: 100 mg/kg i.g. daily; for inhibition rate (absolute %): PTE % vs vehicle; for MWT: mean±SEM; for inhibition rate (relative %): relative to sham minus vehicle
Procedure: (§2) SD rats, body weight 180 g-220 g, half of them being male and the other half being female, provided by the Department of Laboratory Animals, Peking University. The rats were raised in a standard environment with temperature of 22±0.5° C. and relative humidity of 55±5%, 12 h/12 h light-dark cycle, and fed with standard feed.
(§3) Rat was anesthetized with pentobarbital sodium (60 mg/kg, i.p.), the right hind limb was surgically shaved, fixed in the prone position, a longitudinal incision was made along the middle of the right hind limb of the rat, the muscle was bluntly separated, the sciatic nerve was exposed, and the sciatic nerve bifurcate proximal end was loosely ligated with 4-0 silk suture for 4 times, with an interval of about 1 mm each time, in which the degree of tightness was suitable when it was observed that the right hind leg was slightly shaken. After ligation, the muscle and skin were sutured in sequence. For the sham-operated group, the sciatic nerve was only exposed, but not ligated. The success of modeling was determined by observing whether the hind limb of the rat's operation side was closed, slightly valgus and often vacated, and by measuring the mechanical stimulation paw withdrawal threshold and the thermal stimulation paw withdrawal latency of the rat.
(§4) Before surgery, the mechanical stimulation paw withdrawal thresholds and the thermal stimulation paw withdrawal latencies in the rats were determined, and the rats were grouped as: sham operation group (sham), vehicle group (double-distilled water, i.g.), DXL-A-22 group (2 mg/kg, i.g.), DXL-A-24 group (1 mg/kg, i.g.), and Gabapentin group (100 mg/kg, i.g.). All compounds and drugs were dissolved in double-distilled water, and given by intragastric administration at 1 mL/100 g. From the first day after surgery, the administration was carried out every day, and the mechanical stimulation paw withdrawal threshold and the thermal stimulation paw withdrawal latency were measured 2 hours after administration.
The mechanical stimulation paw withdrawal threshold (MWT) of rats was detected by von Frey electronic pain tester. The measurement was carried out on the days 5, 7 and 14 after operation. The rats were placed in a transparent plexiglass box (whose bottom was a wire mesh with a gap of 1 mm^2) to adapt to the environment for 30 min. After the rats had no exploration action, the von Frey electronic pain tester was used to stimulate the middle position of paw at the operation side of the rat, and the maximum force caused by rat paw withdrawal response (i.e., MWT) was recorded. The inhibition rate of the compound was calculated according to the following formula:
Absolute increase rate (i.e., PTE %): PTE %=(MWT of test group−MWT of vehicle group)/MWT of vehicle group×100 (1)
Relative increase rate: Inhibition rate %=(MWT of test group−MWT of vehicle group)/(MWT of Sham operation group−MWT of vehicle group)×100 (2)

CCI rats [6] = assay: Thermal stimulation paw withdrawal latency (PWL) in CCI rats; assay type: in vivo, SD rats; conditions: 100 mg/kg i.g. daily; for PWL: hot plate 50.5° C., cut-off 14s, mean±SEM
Procedure: as §2, §3, §4
The thermal stimulation paw withdrawal latency (PWL) was measured by a hot plate method. The measurement was carried out on the days 5, 7 and 14 after operation. The temperature of the hot plate was 50.5° C. Timing started when the rat was placed on the hot plate, and stopped when the shaking and foot licking responses of the rat appeared, and this time was the PWL of the rat. The hot plate cut-off time was 14s, and the percentage of analgesia (i.e., MPE %) was calculated according to formula (3):
MPE %=(PWL of test group−PWL of vehicle group)/(cut-off time−PWL of vehicle group)×100 (3)

[7] = Day 5 after operation, section 3.1
[8] = Day 5 after operation, section 3.3
[9] = Day 7 after operation, section 3.1
[10] = Day 7 after operation, section 3.3
[11] = Day 14 after operation, section 3.1
[12] = Day 14 after operation, section 3.3
[13] = Day 5 after operation, section 3.2
[14] = Day 5 after operation, section 3.4
[15] = Day 7 after operation, section 3.2
[16] = Day 7 after operation, section 3.4
[17] = Day 14 after operation, section 3.2
[18] = Day 14 after operation, section 3.4

Work on Clc1cccc(N2CC[N+]3(CCCC3)CC2)c1 [DXL-A-05, 8-(3-chlorophenyl)-5,8-diazaspiro[4.5]decan-5-ium bromide] yielded a change in vivo at 3 mg/kg (ICR mice [1]) of 19.5%, an inhibition in vivo at 9 mg/kg (ICR mice [2]) of 32.9% and an inhibition in vivo at 3 mg/kg (ICR mice [3]) of 30.8%. For the same molecule, the inhibition in vivo at 3 mg/kg (ICR mice [4]) was 22.5%.
For FC(F)(F)c1cccc(N2CC[N+]3(CCCC3)CC2)c1 [DXL-A-06, 8-(3-(trifluoromethyl)phenyl)-5,8-diazaspiro[4.5]decan-5-ium bromide], the change in vivo at 3 mg/kg (ICR mice [1]) was 16.7%, the inhibition in vivo at 9 mg/kg (ICR mice [2]) was 17.6% and the inhibition in vivo at 3 mg/kg (ICR mice [3]) was 45.9%. The inhibition in vivo at 3 mg/kg (ICR mice [4]) was 14%.
With Cc1cccc(N2CC[N+]3(CCCC3)CC2)c1 [DXL-A-10, 8-(m-tolyl)-5,8-diazaspiro[4.5]decan-5-ium bromide] the change in vivo at 3 mg/kg (ICR mice [1]) was 11.2%, the inhibition in vivo at 9 mg/kg (ICR mice [2]) was 46.9% and the inhibition in vivo at 3 mg/kg (ICR mice [3]) was 27.4%. The inhibition in vivo at 3 mg/kg (ICR mice [4]) was 29.8%.
For Fc1ccccc1N1CC[N+]2(CCCC2)CC1.[Br-] [DXL-A-18, 8-(2-fluorophenyl)-5,8-diazaspiro[4.5]decan-5-ium bromide], the inhibition in vivo at 1 mg/kg (ICR mice [2]; 1 mg/kg intragastric) was 22%, the “Inhibition rate (%)” value (ICR mice [3]; 1 mg/kg intragastric) was “—” and the inhibition in vivo at 1 mg/kg (ICR mice [4]; 1 mg/kg intragastric) was 21.7%.
In the case of NCC1(CC(=O)O)CCCCC1 [Gabapentin, reference compound], the “inhibition rate (absolute %)” value (CCI rats [5]; [7]) is reported as 99.36%, the “inhibition rate (absolute %)” value (CCI rats [5]; [8]) is reported as 87.98% and the MWT (CCI rats [5]; [7]) is reported as 21.73 ± 0.49**/. The MWT (CCI rats [5]; [8]) was 21.73 ± 0.49**/, the “inhibition rate (relative %)” value (CCI rats [5]; [7]) was 40.08% and the “inhibition rate (relative %)” value (CCI rats [5]; [8]) was 41.04%. For the same molecule, the “inhibition rate (absolute %)” value (CCI rats [5]; [9]) was 128.67%, the “inhibition rate (absolute %)” value (CCI rats [5]; [10]) was 123.00% and the MWT (CCI rats [5]; [9]) was 23.37 ± 1.34**/. For the same molecule, the MWT (CCI rats [5]; [10]) was 23.37 ± 1.34**/, the “inhibition rate (relative %)” value (CCI rats [5]; [9]) was 47.56% and the “inhibition rate (relative %)” value (CCI rats [5]; [10]) was 49.94%. For the same molecule, the “inhibition rate (absolute %)” value (CCI rats [5]; [11]) was 101.42%, the “inhibition rate (absolute %)” value (CCI rats [5]; [12]) was 83.36% and the MWT (CCI rats [5]; [11]) was 21.27 ± 0.82**/. For the same molecule, the MWT (CCI rats [5]; [12]) was 21.27 ± 0.82**/, the “inhibition rate (relative %)” value (CCI rats [5]; [11]) was 38.46% and the “inhibition rate (relative %)” value (CCI rats [5]; [12]) was 36.91%. The PWL (CCI rats [6]; [13]) was 11.37 ± 0.32**/, the PWL (CCI rats [6]; [14]) was 11.37 ± 0.32**/ and the “MPE(%)” value (CCI rats [6]; [13]) was 59.72%. For the same molecule, the “MPE(%)” value (CCI rats [6]; [14]) was 54.02%, the PWL (CCI rats [6]; [15]) was 11.76 ± 0.34**/ and the PWL (CCI rats [6]; [16]) was 11.76 ± 0.34**/. The “MPE(%)” value (CCI rats [6]; [15]) was 66.16%, the “MPE(%)” value (CCI rats [6]; [16]) was 62.48% and the PWL (CCI rats [6]; [17]) was 11.88 ± 0.40**/. The PWL (CCI rats [6]; [18]) was 11.88 ± 0.40**/, the “MPE(%)” value (CCI rats [6]; [17]) was 66.51% and the “MPE(%)” value (CCI rats [6]; [18]) was 67.88%.
For CC(C)Cc1ccc(C(C)C(=O)O)cc1 (stereo not shown) [Ibuprofen table, Ibuprofen, reference compound], the inhibition in vivo at 200 mg/kg (ICR mice [4]; 200 mg/kg intragastric) was 49.1%.
